{"source": "patent US20260009079A1", "about": "“BIOMARKERS OF PREGNANCY LOSS” (The University of Warwick, priority 2022, published 2026)", "origin": "cited, not measured here", "test_system": "bone marrow-derived MSCs", "conditions": "given over 3 menstrual cycles; previously reported (Tewary et al., 2020)", "data": [{"compound": "N[C@@H](CC(=O)N1CCn2c(nnc2C(F)(F)F)C1)Cc1cc(F)c(F)cc1F", "note": "[sitagliptin]", "values": [{"measurement": "recruitment of bone marrow-derived MSCs", "result": "increases"}]}]}
